Experimental data from patent publication US5994363A (priority 1998, dated 1999).
Where a name gives a salt, the structure may show the parent alone.

How the values were obtained:
[1] = Duration of vomiting and retching in dog after daily subcutaneous apomorphine HCl (Example 1); format: in vivo
[2] = mouse, cited from earlier work
[3] = single bolus subcutaneous injection, mammals; cited from earlier work
[4] = Side effects after subcutaneous, sublingual and oral apomorphine HCl in dog (Example 3)

**Q.** For CN1CCc2cccc3c2[C@H]1Cc1ccc(O)c(O)c1-3 [apomorphine HCl], which “time to acclimatization (retching and vomiting)” value ([1]; 0.4 mg/kg/day s.c.) is on record?
**A.** about 10 days

**Q.** What about the “effect of escalation on vomiting/retching” value ([1]; 0.8 mg/kg/day after 21 days at 0.4 mg/kg/day) of the same compound?
**A.** no evidence of an increase in vomiting/retching

**Q.** And the “wash out period required to establish homeostasis” value ([1]; after CNS supersensitivity)?
**A.** 4 to 6 weeks

**Q.** What about the “effect of increasing dose by 100% of the acclimation dose on duration” value ([1]; after acclimation established) of the same compound?
**A.** no corresponding increase in the duration of retching and vomiting

**Q.** And the movement disorders ([1]; dose reduced from 1.2 to 0.8 mg/kg/day)?
**A.** movement disorders were again observed

**Q.** What about the “average duration of retching/vomiting period” value ([1]; following daily administration) of the same compound?
**A.** about 5 minutes

**Q.** And the “average duration of retching/vomiting period” value ([1]; following initial dose)?
**A.** about 30 minutes

**Q.** And the “time to acclimatization (retching and vomiting)” value ([1]; lower doses (0.05 mg/kg start), s.c. daily)?
**A.** ≤ 3 days

**Q.** And the “effect of challenge on duration of vomiting” value ([1]; lower doses, after 12 days, dose 100% greater than acclimatized dose)?
**A.** Only a small increase in the duration of vomiting

**Q.** And the “lethality at or above about 13 mg/kg” value ([2]; single bolus subcutaneous)?
**A.** reported lethal

**Q.** And the LD50 [2]?
**A.** > 50 mg/kg

**Q.** What about the tolerated dose [3] of the same compound?
**A.** up to 13 mg/kg

**Q.** And the “Average Severity” value ([4]; oral 0.2 mg/kg)?
**A.** 0.00%

**Q.** What about the “number of animals having nausea/vomiting” value ([4]; oral 0.2 mg/kg, 8 min, 4 animals per group) of the same compound?
**A.** 0

**Q.** What about the “number of animals having nausea/vomiting” value ([4]; oral 0.2 mg/kg, 15 min) of the same compound?
**A.** 0

**Q.** And the “number of animals having nausea/vomiting” value ([4]; oral 0.2 mg/kg, 30 min)?
**A.** 0

**Q.** And the “Average Severity” value ([4]; subcutaneous 0.04 mg/kg)?
**A.** 150.00%

**Q.** What about the “number of animals having nausea/vomiting” value ([4]; subcutaneous 0.04 mg/kg, 8 min, 4 animals per group) of the same compound?
**A.** 4

**Q.** And the “number of animals having nausea/vomiting” value ([4]; subcutaneous 0.04 mg/kg, 15 min)?
**A.** 2

**Q.** And the “number of animals having nausea/vomiting” value ([4]; subcutaneous 0.04 mg/kg, 30 min)?
**A.** 0

**Q.** And the “Average Severity” value ([4]; sublingual 0.2 mg/kg)?
**A.** 50.00%

**Q.** What about the “number of animals having nausea/vomiting” value ([4]; sublingual 0.2 mg/kg, 8 min, 4 animals per group) of the same compound?
**A.** 0

**Q.** And the “number of animals having nausea/vomiting” value ([4]; sublingual 0.2 mg/kg, 15 min)?
**A.** 1

**Q.** And the “number of animals having nausea/vomiting” value ([4]; sublingual 0.2 mg/kg, 30 min)?
**A.** 1
